Reference: PubChem BioAssay AID1918931 (Molecular Pharmacology Branch, DTP, NCI, 2023)

Tested on: 138582-337-R-J1-PDC complex spheroid viability
Assay: Anticancer human tumor 138582-337-R-J1-PDC patient-derived Merkel cell tumor cell line growth inhibition
Conditions: for IC50: curve of first compound; for viability, T/C: stronger effect = lower value
How it was run: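 Complex spheroids of tumor cells with HUVEC and human MSCs, exposed to iadademstat combined with other agents. Each agent tested in half-log steps from near clinical Cmax (else 10 microM top), DMSO ≤0.25%.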

[1] = second compound 0.1 µM, first compound 0.00949 µM
[2] = second compound 0.1 µM, first compound 0.03 µM
[3] = second compound 0.1 µM, first compound 0.0949 µM
[4] = second compound 0.1 µM, first compound 0.3 µM
[5] = second compound 0.1 µM, first compound 0.949 µM
[6] = second compound 0.1 µM, first compound 3 µM
[7] = second compound 0.316 µM, first compound 0.00949 µM
[8] = second compound 0.316 µM, first compound 0.03 µM
[9] = second compound 0.316 µM, first compound 0.0949 µM
[10] = second compound 0.316 µM, first compound 0.3 µM
[11] = second compound 0.316 µM, first compound 0.949 µM
[12] = second compound 0.316 µM, first compound 3 µM
[13] = second compound 1 µM, first compound 0.00949 µM
[14] = second compound 1 µM, first compound 0.03 µM
[15] = second compound 1 µM, first compound 0.0949 µM
[16] = second compound 1 µM, first compound 0.3 µM
[17] = second compound 1 µM, first compound 0.949 µM
[18] = second compound 1 µM, first compound 3 µM
[19] = second compound 3.16 µM, first compound 0.00949 µM
[20] = second compound 3.16 µM, first compound 0.03 µM
[21] = second compound 3.16 µM, first compound 0.0949 µM
[22] = second compound 3.16 µM, first compound 0.3 µM
[23] = second compound 3.16 µM, first compound 0.949 µM
[24] = second compound 3.16 µM, first compound 3 µM
[25] = second compound 10 µM, first compound 0.00949 µM
[26] = second compound 10 µM, first compound 0.03 µM
[27] = second compound 10 µM, first compound 0.0949 µM
[28] = second compound 10 µM, first compound 0.3 µM
[29] = second compound 10 µM, first compound 0.949 µM
[30] = second compound 10 µM, first compound 3 µM
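Throughout, for viability, T/C: 100% = DMSO vehicle control viability.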

Cn1ncnc1C1c2n[nH]c(=O)c3cc(F)cc(c23)NC1c1ccc(F)cc1 (stereo not given) + NC1CCC(NC2CC2c2ccccc2)CC1
IC50 (second compound 0.1 µM): > 100 nM
IC50 (second compound 0.316 µM): > 100 nM
IC50 (second compound 1 µM): > 100 nM
IC50 (second compound 3.16 µM): > 100 nM
IC50 (second compound 10 µM): > 100 nM
viability, T/C (second compound 0.1 µM, first compound 0.000316 µM): 82.5%
viability, T/C (second compound 0.1 µM, first compound 0.001 µM): 87.7%
viability, T/C (second compound 0.1 µM, first compound 0.00316 µM): 89%
viability, T/C (second compound 0.1 µM, first compound 0.01 µM): 91.2%
viability, T/C (second compound 0.1 µM, first compound 0.0316 µM): 87.9%
viability, T/C (second compound 0.1 µM, first compound 0.1 µM): 98.5%
viability, T/C (second compound 0.316 µM, first compound 0.000316 µM): 84.7%
viability, T/C (second compound 0.316 µM, first compound 0.001 µM): 90.9%
viability, T/C (second compound 0.316 µM, first compound 0.00316 µM): 95.7%
viability, T/C (second compound 0.316 µM, first compound 0.01 µM): 79.1%
viability, T/C (second compound 0.316 µM, first compound 0.0316 µM): 93.3%
viability, T/C (second compound 0.316 µM, first compound 0.1 µM): 105%
viability, T/C (second compound 1 µM, first compound 0.000316 µM): 97.5%
viability, T/C (second compound 1 µM, first compound 0.001 µM): 88.7%
viability, T/C (second compound 1 µM, first compound 0.00316 µM): 94.3%
viability, T/C (second compound 1 µM, first compound 0.01 µM): 83.8%
viability, T/C (second compound 1 µM, first compound 0.0316 µM): 90.7%
viability, T/C (second compound 1 µM, first compound 0.1 µM): 97.9%
viability, T/C (second compound 3.16 µM, first compound 0.000316 µM): 101%
viability, T/C (second compound 3.16 µM, first compound 0.001 µM): 89.4%
viability, T/C (second compound 3.16 µM, first compound 0.00316 µM): 83.1%
viability, T/C (second compound 3.16 µM, first compound 0.01 µM): 81.2%
viability, T/C (second compound 3.16 µM, first compound 0.0316 µM): 82.3%
viability, T/C (second compound 3.16 µM, first compound 0.1 µM): 102%
viability, T/C (second compound 10 µM, first compound 0.000316 µM): 84.7%
viability, T/C (second compound 10 µM, first compound 0.001 µM): 82.8%
viability, T/C (second compound 10 µM, first compound 0.00316 µM): 83.2%
viability, T/C (second compound 10 µM, first compound 0.01 µM): 77%
viability, T/C (second compound 10 µM, first compound 0.0316 µM): 73.7%
viability, T/C (second compound 10 µM, first compound 0.1 µM): 81.5%

NS(=O)(=O)OCC1CC(n2ccc3c(NC4CCc5ccccc54)ncnc32)CC1O (stereo not given) + NC1CCC(NC2CC2c2ccccc2)CC1
IC50 (second compound 0.1 µM): 621 nM
IC50 (second compound 0.316 µM): 658 nM
IC50 (second compound 1 µM): 629 nM
IC50 (second compound 3.16 µM): 471 nM
IC50 (second compound 10 µM): 819 nM
viability, T/C [1]: 98.5%
viability, T/C [2]: 114%
viability, T/C [3]: 92.1%
viability, T/C [4]: 67.2%
viability, T/C [5]: 40.5%
viability, T/C [6]: 33.1%
viability, T/C [7]: 112%
viability, T/C [8]: 96.2%
viability, T/C [9]: 84.2%
viability, T/C [10]: 67.3%
viability, T/C [11]: 37.4%
viability, T/C [12]: 37%
viability, T/C [13]: 106%
viability, T/C [14]: 107%
viability, T/C [15]: 85.5%
viability, T/C [16]: 72.4%
viability, T/C [17]: 35.3%
viability, T/C [18]: 32.2%
viability, T/C [19]: 101%
viability, T/C [20]: 119%
viability, T/C [21]: 90.1%
viability, T/C [22]: 64.3%
viability, T/C [23]: 29.8%
viability, T/C [24]: 22.2%
viability, T/C [25]: 107%
viability, T/C [26]: 107%
viability, T/C [27]: 92.8%
viability, T/C [28]: 79.5%
viability, T/C [29]: 44.4%
viability, T/C [30]: 26%

O=C(C=Cc1cccc(S(=O)(=O)Nc2ccccc2)c1)NO + NC1CCC(NC2CC2c2ccccc2)CC1
IC50 (second compound 0.1 µM): 580 nM
IC50 (second compound 0.316 µM): 678 nM
IC50 (second compound 1 µM): 562 nM
IC50 (second compound 3.16 µM): 483 nM
IC50 (second compound 10 µM): 408 nM
viability, T/C [1]: 82.7%
viability, T/C [2]: 90.2%
viability, T/C [3]: 96%
viability, T/C [4]: 75.3%
viability, T/C [5]: 30.4%
viability, T/C [6]: 2.19%
viability, T/C [7]: 69.6%
viability, T/C [8]: 89.3%
viability, T/C [9]: 95.8%
viability, T/C [10]: 93.6%
viability, T/C [11]: 34.7%
viability, T/C [12]: 2.29%
viability, T/C [13]: 85.3%
viability, T/C [14]: 92.6%
viability, T/C [15]: 97.8%
viability, T/C [16]: 66.5%
viability, T/C [17]: 34.1%
viability, T/C [18]: 1.94%
viability, T/C [19]: 76.5%
viability, T/C [20]: 92.3%
viability, T/C [21]: 79.5%
viability, T/C [22]: 64.7%
viability, T/C [23]: 28.7%
viability, T/C [24]: 0.44%
viability, T/C [25]: 73.9%
viability, T/C [26]: 77.6%
viability, T/C [27]: 82.2%
viability, T/C [28]: 52.3%
viability, T/C [29]: 29.9%
viability, T/C [30]: 0.47%
